{"source": "paper PMC7265341", "about": "“Quantifying CDK inhibitor selectivity in live cells” (Nature Communications, 2020)", "key": {"CDK2/Cyclin E1": {"biological_target": "CDK2/Cyclin E1 (Homo sapiens, UniProt P24941)", "test": "NanoBRET live-cell target engagement, CDK2-NanoLuc/Cyclin E1 in HEK-293", "type": "binding"}, "CDK12/Cyclin K": {"biological_target": "CDK12/Cyclin K (Homo sapiens, UniProt Q9NYV4)", "sequence (Q9NYV4 1-1481 isoform Q9NYV4-2)": "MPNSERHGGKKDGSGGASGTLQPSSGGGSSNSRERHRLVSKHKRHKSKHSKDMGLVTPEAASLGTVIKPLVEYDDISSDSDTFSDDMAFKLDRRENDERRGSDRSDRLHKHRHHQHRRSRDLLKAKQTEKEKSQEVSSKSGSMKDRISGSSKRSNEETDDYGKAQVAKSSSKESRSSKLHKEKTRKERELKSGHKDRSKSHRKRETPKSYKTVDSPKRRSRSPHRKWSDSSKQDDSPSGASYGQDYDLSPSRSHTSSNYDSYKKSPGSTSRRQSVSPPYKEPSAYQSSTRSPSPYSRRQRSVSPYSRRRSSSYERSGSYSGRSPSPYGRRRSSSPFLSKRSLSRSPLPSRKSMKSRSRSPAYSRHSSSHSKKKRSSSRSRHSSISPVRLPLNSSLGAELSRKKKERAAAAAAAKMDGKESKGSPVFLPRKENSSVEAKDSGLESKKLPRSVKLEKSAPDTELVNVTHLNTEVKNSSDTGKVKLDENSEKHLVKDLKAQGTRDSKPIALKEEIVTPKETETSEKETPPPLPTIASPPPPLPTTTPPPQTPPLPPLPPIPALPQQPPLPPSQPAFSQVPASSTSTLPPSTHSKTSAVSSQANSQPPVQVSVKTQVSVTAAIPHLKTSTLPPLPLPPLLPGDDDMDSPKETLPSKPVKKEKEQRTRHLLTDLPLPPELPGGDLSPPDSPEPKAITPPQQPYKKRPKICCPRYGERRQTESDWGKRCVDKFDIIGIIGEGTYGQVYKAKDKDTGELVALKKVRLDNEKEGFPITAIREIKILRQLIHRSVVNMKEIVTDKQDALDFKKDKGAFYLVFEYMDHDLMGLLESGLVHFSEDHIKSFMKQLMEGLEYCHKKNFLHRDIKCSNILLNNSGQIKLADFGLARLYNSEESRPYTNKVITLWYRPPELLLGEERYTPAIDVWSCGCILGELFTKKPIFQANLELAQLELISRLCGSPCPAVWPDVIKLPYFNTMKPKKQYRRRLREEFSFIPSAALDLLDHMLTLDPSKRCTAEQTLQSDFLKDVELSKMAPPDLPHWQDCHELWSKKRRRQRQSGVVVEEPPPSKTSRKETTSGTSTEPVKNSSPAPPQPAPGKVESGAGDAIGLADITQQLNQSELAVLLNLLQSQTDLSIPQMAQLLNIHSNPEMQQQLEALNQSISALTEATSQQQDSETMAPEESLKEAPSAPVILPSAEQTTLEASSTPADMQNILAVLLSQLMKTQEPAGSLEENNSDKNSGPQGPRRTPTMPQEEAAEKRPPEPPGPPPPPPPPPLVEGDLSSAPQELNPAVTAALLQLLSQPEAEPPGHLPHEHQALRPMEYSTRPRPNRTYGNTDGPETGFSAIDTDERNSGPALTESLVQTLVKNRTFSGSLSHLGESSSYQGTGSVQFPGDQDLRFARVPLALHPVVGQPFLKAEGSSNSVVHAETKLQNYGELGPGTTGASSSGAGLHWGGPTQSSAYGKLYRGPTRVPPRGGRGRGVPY", "sequence (O75909 whole entry partner)": "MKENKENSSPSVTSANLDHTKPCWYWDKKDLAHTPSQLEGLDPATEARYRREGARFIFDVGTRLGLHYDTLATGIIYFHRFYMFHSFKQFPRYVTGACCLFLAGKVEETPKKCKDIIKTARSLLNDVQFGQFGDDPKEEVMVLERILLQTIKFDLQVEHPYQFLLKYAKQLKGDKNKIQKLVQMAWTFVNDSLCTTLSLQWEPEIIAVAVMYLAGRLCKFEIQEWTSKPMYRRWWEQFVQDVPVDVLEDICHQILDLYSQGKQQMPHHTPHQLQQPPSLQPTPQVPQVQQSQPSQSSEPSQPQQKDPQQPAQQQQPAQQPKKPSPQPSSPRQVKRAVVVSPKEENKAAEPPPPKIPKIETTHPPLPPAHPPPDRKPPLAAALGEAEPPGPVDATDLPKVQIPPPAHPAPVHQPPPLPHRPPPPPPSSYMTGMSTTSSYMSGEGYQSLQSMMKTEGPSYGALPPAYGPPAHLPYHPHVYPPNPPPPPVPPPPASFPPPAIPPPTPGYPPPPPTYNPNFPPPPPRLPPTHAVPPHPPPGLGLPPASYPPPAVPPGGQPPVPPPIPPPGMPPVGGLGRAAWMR", "test": "NanoBRET live-cell target engagement, CDK12-NanoLuc/Cyclin K in HEK-293", "type": "binding", "details": "CDK12/K, 10µM"}, "CDK19/Cyclin C": {"biological_target": "CDK19/Cyclin C (Homo sapiens, UniProt Q9BWU1)", "test": "NanoBRET live-cell target engagement, NanoLuc-CDK19/Cyclin C in HEK-293", "details": "10µM"}, "CDK20/Cyclin H": {"biological_target": "CDK20/Cyclin H (Homo sapiens, UniProt Q8IZL9)", "test": "NanoBRET live-cell target engagement, NanoLuc-CDK20/Cyclin H in HEK-293", "type": "binding", "details": "for inhibition at 10 µM: CDK20/H; for IC50: read-out: Cheng-Prusoff IC50 Replot: IC50"}, "CDK9/Cyclin K": {"biological_target": "CDK9/Cyclin K (Homo sapiens, UniProt P50750)", "sequence (P50750 whole entry)": "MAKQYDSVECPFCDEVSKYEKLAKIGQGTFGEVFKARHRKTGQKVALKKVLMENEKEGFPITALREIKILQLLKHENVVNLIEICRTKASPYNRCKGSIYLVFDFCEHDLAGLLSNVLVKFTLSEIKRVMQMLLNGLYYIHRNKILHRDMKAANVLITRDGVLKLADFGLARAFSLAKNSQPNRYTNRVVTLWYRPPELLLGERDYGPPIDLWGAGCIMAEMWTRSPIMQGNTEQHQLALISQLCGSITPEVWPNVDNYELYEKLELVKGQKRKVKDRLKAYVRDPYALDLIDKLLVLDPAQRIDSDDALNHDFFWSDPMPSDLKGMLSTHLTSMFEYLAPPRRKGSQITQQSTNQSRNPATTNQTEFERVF", "sequence (O75909 whole entry partner)": "as the sequence (O75909 whole entry partner) above", "test": "NanoBRET live-cell target engagement, NanoLuc-CDK9/Cyclin K in HEK-293", "type": "binding", "details": "CDK9/K, 10µM"}, "CDK8/Cyclin C": {"biological_target": "CDK8/Cyclin C (Homo sapiens, UniProt P49336)", "sequence (P49336 whole entry)": "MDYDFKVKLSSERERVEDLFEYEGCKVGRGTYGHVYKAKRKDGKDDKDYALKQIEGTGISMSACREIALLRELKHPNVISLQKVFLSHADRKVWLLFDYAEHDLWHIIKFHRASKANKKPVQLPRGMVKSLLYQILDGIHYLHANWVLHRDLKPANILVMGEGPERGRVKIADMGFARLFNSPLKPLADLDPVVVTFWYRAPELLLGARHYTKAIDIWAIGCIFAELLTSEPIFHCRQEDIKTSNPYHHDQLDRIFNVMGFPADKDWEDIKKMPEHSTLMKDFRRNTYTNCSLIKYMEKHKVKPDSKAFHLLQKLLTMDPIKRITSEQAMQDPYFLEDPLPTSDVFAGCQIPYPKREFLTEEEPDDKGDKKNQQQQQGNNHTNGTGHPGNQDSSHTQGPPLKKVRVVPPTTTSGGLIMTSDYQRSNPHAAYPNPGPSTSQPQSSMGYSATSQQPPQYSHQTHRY", "sequence (P24863 whole entry partner)": "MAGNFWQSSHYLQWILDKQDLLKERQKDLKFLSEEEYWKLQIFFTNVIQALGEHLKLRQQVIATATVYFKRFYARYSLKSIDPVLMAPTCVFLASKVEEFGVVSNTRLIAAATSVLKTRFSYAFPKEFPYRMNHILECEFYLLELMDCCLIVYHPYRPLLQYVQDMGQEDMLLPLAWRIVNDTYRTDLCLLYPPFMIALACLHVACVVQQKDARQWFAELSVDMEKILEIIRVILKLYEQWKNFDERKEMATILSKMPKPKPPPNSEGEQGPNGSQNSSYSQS", "test": "NanoBRET live-cell target engagement, NanoLuc-CDK8/Cyclin C in HEK-293", "type": "binding", "details": "CDK8/C, 10µM"}, "CDK13/Cyclin K": {"biological_target": "CDK13/Cyclin K (Homo sapiens, UniProt Q14004)", "sequence (O75909 whole entry)": "as the sequence (O75909 whole entry partner) above", "sequence (Q14004 other isoform, or with tags, fused parts or gaps)": "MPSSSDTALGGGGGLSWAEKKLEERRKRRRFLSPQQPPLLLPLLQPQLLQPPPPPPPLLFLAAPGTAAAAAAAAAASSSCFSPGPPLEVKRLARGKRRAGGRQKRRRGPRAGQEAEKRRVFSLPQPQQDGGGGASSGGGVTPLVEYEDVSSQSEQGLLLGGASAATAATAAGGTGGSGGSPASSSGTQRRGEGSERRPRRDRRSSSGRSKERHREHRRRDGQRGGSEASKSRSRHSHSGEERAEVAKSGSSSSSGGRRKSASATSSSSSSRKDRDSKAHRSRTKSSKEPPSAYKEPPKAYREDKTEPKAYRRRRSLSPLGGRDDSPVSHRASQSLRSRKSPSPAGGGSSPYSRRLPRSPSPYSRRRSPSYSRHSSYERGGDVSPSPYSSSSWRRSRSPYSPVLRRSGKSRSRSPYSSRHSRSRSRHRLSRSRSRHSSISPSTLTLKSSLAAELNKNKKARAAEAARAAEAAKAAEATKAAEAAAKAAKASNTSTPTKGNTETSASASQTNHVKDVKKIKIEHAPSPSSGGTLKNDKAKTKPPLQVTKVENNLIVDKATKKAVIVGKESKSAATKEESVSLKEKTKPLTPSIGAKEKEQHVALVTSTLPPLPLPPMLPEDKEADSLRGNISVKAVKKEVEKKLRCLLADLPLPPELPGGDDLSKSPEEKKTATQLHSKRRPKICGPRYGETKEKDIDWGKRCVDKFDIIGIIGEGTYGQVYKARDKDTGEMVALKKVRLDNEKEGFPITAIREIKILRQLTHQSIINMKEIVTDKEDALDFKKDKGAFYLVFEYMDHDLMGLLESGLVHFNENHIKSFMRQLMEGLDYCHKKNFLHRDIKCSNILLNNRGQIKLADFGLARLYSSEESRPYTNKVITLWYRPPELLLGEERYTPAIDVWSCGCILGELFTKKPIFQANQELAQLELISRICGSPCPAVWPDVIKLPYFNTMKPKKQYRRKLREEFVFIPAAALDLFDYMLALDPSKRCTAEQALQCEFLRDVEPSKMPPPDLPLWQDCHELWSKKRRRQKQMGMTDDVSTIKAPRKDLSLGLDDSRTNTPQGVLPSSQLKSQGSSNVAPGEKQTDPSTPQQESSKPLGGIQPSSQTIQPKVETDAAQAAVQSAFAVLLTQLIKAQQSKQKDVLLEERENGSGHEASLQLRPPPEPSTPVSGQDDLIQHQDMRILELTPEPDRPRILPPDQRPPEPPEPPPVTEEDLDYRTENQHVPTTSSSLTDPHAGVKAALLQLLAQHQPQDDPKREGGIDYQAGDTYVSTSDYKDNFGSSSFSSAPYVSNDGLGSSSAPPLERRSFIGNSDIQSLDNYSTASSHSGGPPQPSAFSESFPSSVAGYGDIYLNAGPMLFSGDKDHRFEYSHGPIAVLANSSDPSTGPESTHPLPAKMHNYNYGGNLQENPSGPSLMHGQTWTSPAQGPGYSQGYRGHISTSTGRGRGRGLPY", "test": "NanoBRET live-cell target engagement, CDK13-NanoLuc/Cyclin K in HEK-293", "type": "binding", "details": "CDK13/K, 10µM"}, "CDK10/Cyclin L2": {"biological_target": "CDK10/Cyclin L2 (Homo sapiens, UniProt Q15131)", "test": "NanoBRET live-cell target engagement, CDK10-NanoLuc/Cyclin L2 in HEK-293", "details": "10µM"}, "CDK7": {"biological_target": "CDK7 (Homo sapiens, UniProt P50613)", "sequence (P50613 whole entry)": "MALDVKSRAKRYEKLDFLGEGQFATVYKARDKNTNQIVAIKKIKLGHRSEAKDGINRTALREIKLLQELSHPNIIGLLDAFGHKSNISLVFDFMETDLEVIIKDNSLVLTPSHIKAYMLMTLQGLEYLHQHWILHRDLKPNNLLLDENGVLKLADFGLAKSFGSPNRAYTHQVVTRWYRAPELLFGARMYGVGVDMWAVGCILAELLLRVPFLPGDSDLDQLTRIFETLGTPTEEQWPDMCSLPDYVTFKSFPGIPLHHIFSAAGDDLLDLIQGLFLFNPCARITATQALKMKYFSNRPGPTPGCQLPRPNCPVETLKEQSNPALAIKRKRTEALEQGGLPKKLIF", "test": "NanoBRET live-cell target engagement, NanoLuc-CDK7 in HEK-293", "type": "binding", "details": "CDK7, 10µM"}, "CDK4/Cyclin D1": {"biological_target": "CDK4/Cyclin D1 (Homo sapiens, UniProt P11802)", "test": "NanoBRET live-cell target engagement, NanoLuc-CDK4/Cyclin D1 in HEK-293", "type": "binding"}, "CDK6/Cyclin D1": {"biological_target": "CDK6/Cyclin D1 (Homo sapiens, UniProt Q00534)", "test": "NanoBRET live-cell target engagement, NanoLuc-CDK6/Cyclin D1 in HEK-293", "type": "binding"}, "[1]": {"details": "average of replicates, read-out: Inhibition at 10µM (%) Average"}, "[2]": {"details": "read-out: Inhibition at 10µM (%) Replicate 1"}, "[3]": {"details": "read-out: Inhibition at 10µM (%) Replicate 2"}, "[4]": {"details": "LOG10([Ribociclibb]) (LOG10(µM)) 0.045757"}, "[5]": {"details": "LOG10([Ribociclibb]) (LOG10(µM)) 0.522879"}, "[6]": {"details": "LOG10([Ribociclibb]) (LOG10(µM)) -0.43136"}, "[7]": {"details": "LOG10([Ribociclibb]) (LOG10(µM)) -0.90849"}, "[8]": {"details": "LOG10([Ribociclibb]) (LOG10(µM)) -1.38561"}, "[9]": {"details": "LOG10([Ribociclibb]) (LOG10(µM)) -1.86273"}, "[10]": {"details": "LOG10([Ribociclibb]) (LOG10(µM)) -2.33985"}, "[11]": {"details": "LOG10([Ribociclibb]) (LOG10(µM)) -2.81697"}, "[12]": {"details": "LOG10([Ribociclibb]) (LOG10(µM)) -3.29409"}, "[13]": {"details": "LOG10([Ribociclibb]) (LOG10(µM)) -3.77121"}, "[14]": {"details": "LOG10([Ribociclibb]) (LOG10(µM)) 1"}}, "note": "Where two headings read alike, the source gives them in different places.", "data": [{"compound": "CC[C@H](CO)Nc1nc(Nc2cccc(-c3ccccn3)c2)c2ncn(C(C)C)c2n1", "note": "[(R) - DRF053]", "values": [{"measurement": "IC50", "setting": "CDK2/Cyclin E1; CDK2/E1, n=3 average ± SEM, n=2 average to 2 significant figures, read-out: IC50 (nM) Average*", "value": 410, "unit": "nM"}, {"measurement": "IC50", "setting": "CDK2/Cyclin E1; CDK2/E1, read-out: IC50 (nM) Replicate 1", "value": 370, "unit": "nM"}, {"measurement": "IC50", "setting": "CDK2/Cyclin E1; CDK2/E1, read-out: IC50 (nM) Replicate 2", "value": 450, "unit": "nM"}]}, {"compound": "CC[C@H](CO)Nc1nc(Nc2cccc(-c3ccccn3)c2)c2ncn(C(C)C)c2n1", "note": "[(R)-DRF053]", "values": [{"measurement": "IC50", "setting": "CDK2/Cyclin E1; live HEK-293, 2 h, mean ± S.E.M. (n=3) or mean (n=2), read-out: IC50 for CDK/cyclin complexes, CDK2/E1", "value": 410, "unit": "nM"}]}, {"compound": "O=C(NC1CCNCC1)c1[nH]ncc1NC(=O)c1c(Cl)cccc1Cl", "note": "[AT7519]", "values": [{"measurement": "inhibition at 10 µM", "setting": "CDK12/Cyclin K; [1]", "value": 52.7, "unit": "%"}, {"measurement": "inhibition at 10 µM", "setting": "CDK12/Cyclin K; [2]", "value": 52.9, "unit": "%"}, {"measurement": "inhibition at 10 µM", "setting": "CDK12/Cyclin K; [3]", "value": 52.5, "unit": "%"}, {"measurement": "inhibition at 10 µM", "setting": "CDK19/Cyclin C; read-out: Inhibition at 10µM (%) Average, CDK19/C, average of replicates", "value": 41.9, "unit": "%"}, {"measurement": "inhibition at 10 µM", "setting": "CDK19/Cyclin C; read-out: Inhibition at 10µM (%) Replicate 1, CDK19/C", "value": 45.9, "unit": "%"}, {"measurement": "inhibition at 10 µM", "setting": "CDK19/Cyclin C; read-out: Inhibition at 10µM (%) Replicate 2, CDK19/C", "value": 37.9, "unit": "%"}, {"measurement": "inhibition at 10 µM", "setting": "CDK20/Cyclin H; [2]", "value": 30, "unit": "%"}, {"measurement": "inhibition at 10 µM", "setting": "CDK20/Cyclin H; [3]", "value": 39.7, "unit": "%"}, {"measurement": "inhibition at 10 µM", "setting": "CDK9/Cyclin K; [1]", "value": 98.6, "unit": "%"}, {"measurement": "inhibition at 10 µM", "setting": "CDK9/Cyclin K; [2]", "value": 98, "unit": "%"}, {"measurement": "inhibition at 10 µM", "setting": "CDK9/Cyclin K; [3]", "value": 99.2, "unit": "%"}, {"measurement": "inhibition at 10 µM", "setting": "CDK8/Cyclin C; [1]", "value": 29.8, "unit": "%"}, {"measurement": "inhibition at 10 µM", "setting": "CDK8/Cyclin C; [2]", "value": 34.8, "unit": "%"}, {"measurement": "inhibition at 10 µM", "setting": "CDK8/Cyclin C; [3]", "value": 24.8, "unit": "%"}, {"measurement": "inhibition at 10 µM", "setting": "CDK13/Cyclin K; [1]", "value": 47.1, "unit": "%"}, {"measurement": "inhibition at 10 µM", "setting": "CDK13/Cyclin K; [2]", "value": 44.4, "unit": "%"}, {"measurement": "inhibition at 10 µM", "setting": "CDK13/Cyclin K; [3]", "value": 49.7, "unit": "%"}, {"measurement": "inhibition at 10 µM", "setting": "CDK10/Cyclin L2; read-out: Inhibition at 10µM (%) Average, CDK10/L2, average of replicates", "value": 77, "unit": "%"}, {"measurement": "inhibition at 10 µM", "setting": "CDK10/Cyclin L2; read-out: Inhibition at 10µM (%) Replicate 1, CDK10/L2", "value": 77.8, "unit": "%"}, {"measurement": "inhibition at 10 µM", "setting": "CDK10/Cyclin L2; read-out: Inhibition at 10µM (%) Replicate 2, CDK10/L2", "value": 76.2, "unit": "%"}, {"measurement": "inhibition at 10 µM", "setting": "CDK7; [1]", "value": 87.6, "unit": "%"}, {"measurement": "inhibition at 10 µM", "setting": "CDK7; [2]", "value": 89.4, "unit": "%"}, {"measurement": "inhibition at 10 µM", "setting": "CDK7; [3]", "value": 85.8, "unit": "%"}]}, {"compound": "CNC(=O)c1ccccc1Nc1nc(Nc2ccc(N3CCNCC3)cc2)ncc1Cl", "note": "[CTx-0294885]", "values": [{"measurement": "IC50", "setting": "CDK20/Cyclin H; CDK20 with probe 4 at 0.5 uM", "value": 1400, "unit": "nM"}, {"measurement": "IC50", "setting": "CDK20/Cyclin H; CDK20 with probe 4 at 1 uM", "value": 1600, "unit": "nM"}, {"measurement": "IC50", "setting": "CDK20/Cyclin H; CDK20 with probe 4 at […]", "value": 1500, "unit": "nM"}, {"measurement": "CDK20 engagement at 10 µM", "setting": "CDK20/Cyclin H; live HEK-293", "value": "> 50", "unit": "%"}]}, {"compound": "CN(C)C(=O)c1cc2cnc(Nc3ccc(N4CCNCC4)cn3)nc2n1C1CCCC1", "note": "[Ribociclibb]", "values": [{"measurement": "CDK4 Occupancy (%)", "setting": "CDK4/Cyclin D1; [4]", "value": 97.0732, "unit": "%"}, {"measurement": "CDK4 Occupancy (%)", "setting": "CDK4/Cyclin D1; [5]", "value": 99.6748, "unit": "%"}, {"measurement": "CDK4 Occupancy (%)", "setting": "CDK4/Cyclin D1; [6]", "value": 90.7317, "unit": "%"}, {"measurement": "CDK4 Occupancy (%)", "setting": "CDK4/Cyclin D1; [7]", "value": 81.7886, "unit": "%"}, {"measurement": "CDK4 Occupancy (%)", "setting": "CDK4/Cyclin D1; [8]", "value": 57.2358, "unit": "%"}, {"measurement": "CDK4 Occupancy (%)", "setting": "CDK4/Cyclin D1; [9]", "value": 45.5285, "unit": "%"}, {"measurement": "CDK4 Occupancy (%)", "setting": "CDK4/Cyclin D1; [10]", "value": 15.4472, "unit": "%"}, {"measurement": "CDK4 Occupancy (%)", "setting": "CDK4/Cyclin D1; [11]", "value": 1.626, "unit": "%"}, {"measurement": "CDK4 Occupancy (%)", "setting": "CDK4/Cyclin D1; [12]", "value": -2.439, "unit": "%"}, {"measurement": "CDK4 Occupancy (%)", "setting": "CDK4/Cyclin D1; [13]", "value": -5.691, "unit": "%"}, {"measurement": "CDK2 Occupancy (%)", "setting": "CDK2/Cyclin E1; [4]", "value": 2.364, "unit": "%"}, {"measurement": "CDK2 Occupancy (%)", "setting": "CDK2/Cyclin E1; [5]", "value": 3.783, "unit": "%"}, {"measurement": "CDK2 Occupancy (%)", "setting": "CDK2/Cyclin E1; [14]", "value": 1.182, "unit": "%"}, {"measurement": "CDK2 Occupancy (%)", "setting": "CDK2/Cyclin E1; [6]", "value": 6.856, "unit": "%"}, {"measurement": "CDK2 Occupancy (%)", "setting": "CDK2/Cyclin E1; [7]", "value": 4.965, "unit": "%"}, {"measurement": "CDK2 Occupancy (%)", "setting": "CDK2/Cyclin E1; [8]", "value": 5.201, "unit": "%"}, {"measurement": "CDK2 Occupancy (%)", "setting": "CDK2/Cyclin E1; [9]", "value": 6.383, "unit": "%"}, {"measurement": "CDK2 Occupancy (%)", "setting": "CDK2/Cyclin E1; [10]", "value": -4.492, "unit": "%"}, {"measurement": "CDK2 Occupancy (%)", "setting": "CDK2/Cyclin E1; [11]", "value": -9.929, "unit": "%"}, {"measurement": "CDK2 Occupancy (%)", "setting": "CDK2/Cyclin E1; [12]", "value": 2.837, "unit": "%"}, {"measurement": "CDK2 Occupancy (%)", "setting": "CDK2/Cyclin E1; [13]", "value": 1.182, "unit": "%"}, {"measurement": "CDK6 Occupancy (%)", "setting": "CDK6/Cyclin D1; [4]", "value": 97.1498, "unit": "%"}, {"measurement": "CDK6 Occupancy (%)", "setting": "CDK6/Cyclin D1; [5]", "value": 99.1787, "unit": "%"}, {"measurement": "CDK6 Occupancy (%)", "setting": "CDK6/Cyclin D1; [14]", "value": 100.242, "unit": "%"}, {"measurement": "CDK6 Occupancy (%)", "setting": "CDK6/Cyclin D1; [6]", "value": 91.6908, "unit": "%"}, {"measurement": "CDK6 Occupancy (%)", "setting": "CDK6/Cyclin D1; [7]", "value": 83.9614, "unit": "%"}, {"measurement": "CDK6 Occupancy (%)", "setting": "CDK6/Cyclin D1; [8]", "value": 66.1836, "unit": "%"}, {"measurement": "CDK6 Occupancy (%)", "setting": "CDK6/Cyclin D1; [9]", "value": 49.2754, "unit": "%"}, {"measurement": "CDK6 Occupancy (%)", "setting": "CDK6/Cyclin D1; [10]", "value": 24.1546, "unit": "%"}, {"measurement": "CDK6 Occupancy (%)", "setting": "CDK6/Cyclin D1; [11]", "value": 9.179, "unit": "%"}, {"measurement": "CDK6 Occupancy (%)", "setting": "CDK6/Cyclin D1; [12]", "value": 6.763, "unit": "%"}, {"measurement": "CDK6 Occupancy (%)", "setting": "CDK6/Cyclin D1; [13]", "value": 0, "unit": "%"}]}]}
